# What was measured:
# NP WT = NP WT (Influenza A virus, UniProt P15682, A237T/A472T/G34D/M105R/P283S); type: binding, type-A Influenza virus (H1N1 A/WSN/1933)
# NP R152A = NP R152A (Influenza A virus, UniProt P15682, R152A); type: binding, type-A Influenza virus
# NP = NP (Influenza A virus, UniProt P15682, A237T/A472T/G34D/M105R/P283S)
# NP Y148A = NP Y148A (Influenza A virus, UniProt P15682, Y148A)
# NP R361A [1] = target: T1, NP R361A (Influenza A virus, UniProt P15682, R361A)
# [2] = target: nucleoprotein of SEQ ID NO: 2 (Influenza A virus, UniProt P15682, A237T/A472T/G34D/M105R/P283S)
# NP R416A mutant = NP R416A mutant (Influenza A virus, UniProt P15682, R416A)
# NP R361A [3] = target: T1, NP R361A; remark: listed apart in the source
Structure (SMILES),competition with the association of RNA to NP (signal of NP-RNA complex) (NP WT),effect of R152A mutation on affinity (NP R152A),direct attachment to surface-bound protein (NP),competition with the RNA (NP Y148A),competition with the RNA / attachment (NP R361A [1]),beacon fluorescence in the presence of compound [2],attachment to R416A mutant (NP R416A mutant),direct attachment to surface-bound protein (NP R361A [3])
COc1ccc2cc(C(CC(=O)O)CC(=O)O)ccc2c1 [Naproxen A],biphasic effect,reduces the affinity,–,–,–,–,–,–
COc1ccc2cc(-c3c(C(=O)O)cccc3C(=O)O)ccc2c1 [Naproxen c0],–,reduces the affinity,–,–,–,–,–,–
COc1ccc2cc(C(C)C(=O)O)ccc2c1 (centres unmarked) [Naproxen],signal decrease,no effect,direct attachment,does not compete with the RNA any longer,does not compete with the RNA any longer,fluorescence decreases,does not fix,but not to R361A

# — patent US20180028478A1, “ANTIVIRAL COMPOSITIONS DIRECTED AGAINST THE NUCLEOPROTEIN OF INFLUENZA VIRUSES” (priority 2011, published 2018)
